Source: patent US20120015901A1, “METHODS AND PREPARATIONS FOR PROTECTING CRITICALLY ILL PATIENTS” (priority 2009, published 2012)
Where two headings read alike, the source gives them in different places.

Tests used:
[1] = test system: parentally fed, hyperglycemic, burn-injured rabbits
From the text: Our research group previously developed an animal model of critical illness that has shown to mimic the dynamic endocrine, immunological and metabolic changes characteristic of human critical illness. In this animal model we investigated the effect of critical illness on spermidine levels and the effects of spermidine-administration during critical illness on survival, organ function (clinical, biochemical, and cyto/histopathological effects), and on metabolic, inflammatory/immunological and cellular pathways. Animals were treated according to the “Principals of Laboratory Animal Care” formulated by the U.S. National Society for Medical Research and the “Guide for the Care and Use of Laboratory Animals” prepared by the National Institutes of Health. The protocol was approved by the K.U. Leuven Ethical Review Board for Animal Research. Adult male New Zealand White rabbits, weighing approximately 3 kg, were purchased from a local rabbitry, were housed individually with free access to water, hay and regular rabbit chow, and were exposed to artificial light for 14 h per day. This animal model of prolonged critical illness mimics the human condition (Weekers et al. (2003) Endocrinol 144, 5329-5338). Indeed, the critically ill animals undergo the same metabolic, immunological and endocrine disturbances and development of organ failure and muscle wasting as the human counterpart.
In our animal model, critical illness was induced by placing intravascular catheters, selectively destroying pancreatic β-cells by alloxan, followed by burn injury. […] The administration of alloxan was necessary to control both blood glucose and plasma insulin levels independently. The application of the burn wound is done 48 hours after alloxan-injection, at which time alloxan has done irreversible damage to the β-cells (selective β-cell necrosis, phase 4 after alloxan-injection). After imposing a burn wound, animals were brought to […], because this reflects most the human situation of critical illness. Non-injured, healthy rabbits served as control.
The effects of spermidine administration were investigated in parentally fed, hyperglycemic, burn-injured rabbits. The rabbits were purchased from a local rabbitry and weighed approximately 3-3.5 kg. The burn injury experiments were performed analoguous to those described above. After imposing the burn wound, animals received a continuous infusion of saline or spermidine (low dose ranging from 0.3-3 mg/day or high dose ranging from 30-300 mg/day).
At 09:00±1 h of […] (FIG. 3) animals were weighed, and under general anesthesia (30 mg/kg ketamine i.m. [Imalgene 1000; Merial, Lyon, France]; 0.15 ml/kg medetomidine i.m. [Orion, Espoo, Finland]), an ice-cold 10% solution of alloxan-monohydrate (150 mg/kg; Alloxan; Sigma-Aldrich, Bornem, Belgium) was injected slowly via a marginal ear vein. Afterward, the animals had free access to regular rabbit chow, hay and drinking water enriched with glucose to face alloxan-induced acute hypoglycemia.
At 10:00±1 h of Day 0 (FIG. 3), glycemia was measured to confirm hyperglycemia after alloxan (irreversible phase 4 after alloxan-injection). When glycemia exceeded 300 mg/dl, animals were considered eligible for the study. Under general anesthesia (see above), supplemented with 1.5 volume % isoflurane (Isoba Vet.; Schering-Plough, Brussels, Belgium) inhalation, animals were shaved and catheters were placed into the right jugular vein for intravenous infusion (4F; Vygon, Ecouen, France) and into the right carotid artery for blood sampling (5 Ch; Sherwood Medical, Tullamore, Ireland). A paravertebral block (5 ml Xylocaine 1%; Astra Zeneca, Brussels, Belgium) was performed and a full thickness burn injury of 20% body-surface area was imposed. Animals were then fitted to a homemade jacket to secure catheters and immediately returned to their cages.

[2] = test system: histone acetyltransferase activity (HAT-activity); assay: HAT activity assay, yeast nuclear extract; type: biochemical; conditions: extracts of isolated yeast nuclei; spermidine 100 mM
Description: Yeast nuclei were isolated from 200 ml BY4741 wild type culture (grown for 24 h in SCD to stationary phase) as described previously (Buttner et al. (2007), Mol Cell 25, 233-246). Nuclear extract was prepared using nuclear extraction buffer from BioVision's Nuclear/Cytosol Fractionation Kit (Bio Vision, K266-25) without DTT addition, according to the manufacturer's protocol. Incubation time was doubled to 80 min with vortexing every 8 minutes. Protein concentration was determined via Bradford, giving yields of approximately 1 mg/ml protein. Yeast nuclear extract was immediately subjected to HAT activity assays.
For HAT-activity determination the commercially available HAT Activity Colorimetric Assay KIT from BioVision (Bio Vision K332-100) was employed. HAT assays were performed according to the manufacturer's protocol. […] Development of tetrazolium dye was measured by absorption at 440 nm using a GeniosPro plate reader (Tecan). Background readings were done with samples without NADH generating enzyme, giving the nuclear extracts unspecific background activity and eliminate any possible negative effects of spermidine addition on the assay itself. […] Calculated slopes of spermidine treated samples were compared to slopes of untreated samples which were set to a relative activity of 100%.

[3] = test system: general HAT activity in extracts of mammalian nuclei; assay: HAT activity assay, nuclear extract of HeLa-cells; type: biochemical; conditions: extracts of mammalian nuclei (data not shown); spermidine 100 mM
Description: For HAT-activity determination the commercially available HAT Activity Colorimetric Assay KIT from BioVision (Bio Vision K332-100) was employed. HAT assays were performed according to the manufacturer's protocol. In brief, assays were performed with each 15 μg of yeast nuclear extract or nuclear extract of HeLa-cells (Bio Vision K332-100-4), respectively. Spermidine was added at a final concentration of 100 mM 15 minutes after assay initiation. Development of tetrazolium dye was measured by absorption at 440 nm using a GeniosPro plate reader (Tecan). Background readings were done with samples without NADH generating enzyme, giving the nuclear extracts unspecific background activity and eliminate any possible negative effects of spermidine addition on the assay itself. […] Regression coefficients of R^2>0.99 were obtained. Calculated slopes of spermidine treated samples were compared to slopes of untreated samples which were set to a relative activity of 100%.

[4] = test system: chronologically aging wild type yeast cells; assay: Spontaneous mutation frequency and budding index; type: cell-based; conditions: spermidine-treated cultures, 4 mM
Description: Spontaneous mutation frequency was determined based on the appearance of mutants able to form colonies on agar plates containing 60 mg/l L-canavanine sulfate according to Fabrizio et al. (Fabrizio et al. (2004) J Cell Biol 166, 1055-1067). Mutation rates were calculated per 10^6 living (colony forming on YEPD) cells. Budding index was assessed by counting the percentage of budded cells after 10 seconds of sonication on ice using Sonifier 250 from Benson (Duty Cycle: 35; Output Control: 2.5) in micrographs of no more than 40 cells. For each sample, at least 500 cells were evaluated.

[5] = preliminary results, spermidine versus saline

## NCCCCNCCCN [spermidine]
[1]; 0.3 to 3 mg spermidine per day (groups D, E; 2 groups of 7 animals)
  mortality: 28%
[1]; 30 to 300 mg spermidine per day (groups A, B, C; 3 groups of 8 animals)
  mortality: 12.5%
[1]; already seen with doses of 1-200 mg spermidine per kg per day
  plasma and tissue levels of spermidine: could restore both plasma and tissue levels of spermidine
[1]; benefit most pronounced for the higher doses
  survival rate: marked improved survival rate
[1]; days following the initial hit
  AST levels (marker of liver dysfunction): rapid and profound decrease in AST-levels
[1]; high dose 30-300 mg/day, low dose 0.3-3 mg/day
  rise in plasma creatinine (marker of kidney function): could be prevented
[1]; higher doses 30-300 mg/day
  plasma spermidine concentration: maintained or increased the plasma spermidine to (supra)normal values
[1]; higher doses 30-300 mg/day/rabbit
  mortality of the animals (in words): reduce the mortality
[1]; low doses 0.3-3 mg/day
  plasma spermidine concentration: minimal or no effect
[1]; low doses 0.3-3 mg/day/rabbit
  mortality of the animals (in words): reduce the mortality
[1]; low doses of spermidine
  kidney protection: renoprotection
[1]; [5]
  autophagy (key proteins): stimulation of autophagy
  mitochondrial function: improvement of mitochondrial function
[1]; spermidine infusion
  rise in ureum (marker of kidney dysfunction and muscle wasting): could also be prevented
[1]; spermidine infusion versus saline
  blood pH and lactate levels during illness: maintain a normal pH and normal lactate levels
[2]
  general HAT activity: efficiently inhibited
[3]
  general HAT activity: efficiently inhibited
[4]
  mutation frequency and budding index: neither associated with an increased mutation frequency nor a higher budding index
